Measurements reported in patent US10214724B2, “Methods for differentiation of human pluripotent stem cells to brain microvascular endothelial cells” (Wisconsin Alumni Research Foundation, priority 2016, dated 2019).

Assays:
[1] = test system: IMR90-4 induced pluripotent stem cells; assay: Brachyury expression after CHIR99021 treatment (immunostaining, flow cytometry); format: cell-based, human; settings: 6 μM, 24 hr treatment in DeSR1; IMR90-4 iPSCs
Method: Given the roles of canonical Wnt signaling in both mesoderm specification and BBB development, we first treated hPSCs with CHIR99021, a GSK-3β inhibitor and Wnt agonist, to direct hPSCs to mesoderm-derived endothelial progenitors. Prior to treatment, IMR90-4 induced pluripotent stem cells (iPSCs) were seeded on a Matrigel-coated six-well plate at a density of 35×10^3 cells/cm^2 and expanded in an undifferentiated state for three days in mTeSR1™ (FIG. 1A). […] After 24 hours, the medium was removed and cells were transitioned to DeSR2 (DeSR1 plus B27 supplement) for another five days with daily medium changes. At day 0, pluripotency was verified by OCT4, NANOG and TRA-1-60 immunostaining (FIGS. 1B-D). After 24 hr of CHIR99021 treatment, almost 100% of the cells expressed brachyury, assessed by immunostaining (FIG. 1E) and flow cytometry (FIG. 1F), indicating progression to primitive streak. […] At day 4, more than 90% of the cells expressed the intermediate mesoderm marker PAX2 (FIGS. 1G, 1H) and PAX2 expression peaked at day 6 (FIG. 5). […]
Cells were dissociated with Accutase™ and fixed in 1% PFA for 15 min at room temperature, then washed with 0.5% BSA (Bio-Rad) plus 0.1% Triton-X100 three times. […] Data were collected on a FACSCaliber flow cytometer (Beckton Dickinson) and analyzed using FlowJo. […]

hPSC-derived BMECs [2] = assay: Flow cytometry of BMEC marker proteins (claudin-5, Pgp, occludin, ZO-1) with or without RA; format: cell-based, human
Text: Data were collected on a FACSCaliber flow cytometer (Beckton Dickinson) and analyzed using FlowJo.

hPSC-derived BMECs [3] = assay: TEER of hPSC-derived BMECs on Transwells; format: cell-based, human; settings: cells differentiated in the presence of RA; replated day 8, measured at day 10
Method: BMECs were differentiated as shown in FIG. 1A in the presence or absence of RA, as indicated. (A) At day 8 expression of tight junction and transporter genes was assessed by qPCR. (B) Flow cytometry for CD31 expression was performed at days 6 and 8. (C) Pgp expression was quantified by flow cytometry at day 10. At day 6, medium was switched to hESFM containing or lacking RA, as indicated. (D) At day 8, cells were replated onto Matrigel®-coated Transwell® membranes at 10^6 cells/cm^2 in the presence or absence of 10 μM Y27632 (ROCK inhibitor). Y27632 was added to increase attachment (Pipparelli et al., PloS one 2013, 8:e62095) of cells differentiated in the absence of RA and permit confluent monolayer formation. TEER was measured at day 10, two days after replating (D). (E, G) Occludin and (F, G) ZO-1 expression and localization were assessed by flow cytometry and immunostaining at day 10. Red arrows indicate non-uniform occludin or ZO-1. Claudin-5 expression at day 10 was assessed by flow cytometry (H, I). (I) At day 10, expression level of claudin-5 in BMECs differentiated in the presence or absence of RA were assessed by flow cytometry. (J) Localization and expression of claudin-5 of cells differentiated in the absence of RA was determined via immunostaining (white arrows indicate non-positive claudin-5 and red arrows indicate discontinuous claudin-5). […]

[4] = test system: tight junction related genes TJP1, CLDN5 and OCLN and efflux transporters ABCG2, ABCC1, and ABCB1; assay: Quantitative RT-PCR of tight junction and transporter genes with or without RA; format: cell-based, human; settings: 10 μM RA day 6 to day 8; qPCR at day 8
Method: Total RNA was extracted with the RNeasy mini kit (QIAGEN) and treated with DNase (QIAGEN). 1 μg total RNA was reverse transcribed into cDNA via Oligo (dT) with Superscript III Reverse Transcriptase (Invitrogen). Real-time quantitative PCR was done in triplicate with iQSYBR Green™ SuperMix (Bio-Rad). GAPDH was used as an endogenous housekeeping control.

hPSC-derived BMECs [5] = assay: ICAM-1 induction by TNF-α; settings: 10 ng/mL TNF-α for 16 hours; day 10 hPSC-derived BMECs
Method: (D-F) ICAM-1 induction in hPSC-derived BMECs. hPSC-derived BMECs at day 10 were treated with 10 ng/mL of TNF-α for 16 hours. Cells were stained for ICAM-1 (D) before and (E) after TNF-α treatment. (F) Cells were dissociated or dissociated with Accutase™ and ICAM-1 expression quantified by flow cytometry before and after TNF-α treatment. […] Data were collected at least from three independent samples and are represented as mean±SEM. **p<0.01, ***p<0.001.

Cc1c[nH]c(-c2cnc(NCCNc3ccc(C#N)cn3)nc2-c2ccc(Cl)cc2Cl)n1 [CHIR99021]
cells expressing brachyury [1]: ~100%

CC1=C(/C=C/C(C)=C/C=C/C(C)=C/C(=O)O)C(C)(C)CCC1 [RA, retinoic acid]
cells expressing claudin-5 (hPSC-derived BMECs [2]; RA-treated cells, day 10, flow cytometry (around 60% in the absence of RA)): 100% | cells expressing Pgp (hPSC-derived BMECs [2]; differentiated in the presence of RA, day 10, flow cytometry): ~100% | TEER (hPSC-derived BMECs [3]): ~4000 Ω·cm^2 | expression of TJP1, CLDN5, OCLN, ABCG2, ABCC1 and ABCB1 in cells exposed to RA vs. lacking RA [4]: 3-20 fold

TNF-α
ICAM-1 expression (hPSC-derived BMECs [5]): upregulation
